# Assay results taken from patent publication US20060223827A1, “Bioreductively activated stilbene prodrugs” (Siemens Aktiengesellschaft, priority 2003, published 2006).
# Experiments:
# [1] = Radiolysis (steady state): release of combretastatin A4 after one-electron reduction; type: physicochemical; details: isopropanol/water 50:50, N2O-saturated, 60Co source 3.9 Gy min^−1, HPLC
# Method: In the hypoxic environments of solid tumours, prodrugs can be reduced by one-electron processes that are inhibited in the normoxic environments of normal tissues.
# Compounds were dissolved in an isopropanol/water mixture (50:50) at a concentration of 50 μM or below. Solutions, in gas-tight syringes, were saturated with nitrous oxide before irradiation in a ^60Co source at a dose rate of 3.9 Gy min^−1 (as determined by Fricke dosimetry: H. Fricke and E. J. Hart, “Chemical Dosimetry” in Radiation Dosimetry Vol. 2 (F. H. Attrix and W. C. Roesch. Eds.), pp 167-239. Academic Press New York, 1966.). Solutions were analysed for released drug by HPLC. The radiation chemical yields (G-values) of combretastatin A4 release obtained in this assay for selected example compounds are shown in Table 1.
Structure (SMILES),G (radiation chemical yield of combretastatin A4 release) [1],melting point
"COc1ccc(/C=C\c2cc(OC)c(OC)c(OC)c2)cc1OCc1ccc([N+](=O)[O-])s1 [Example 1, 1-(4-Methoxy-3-(5-nitrothien-2-yl)methoxy)phenyl-2-(3,4,5-trimethoxy)phenyl-Z-ethene]",0.23 µmol/J,88 to 90 °C
"COc1ccc(/C=C\c2cc(OC)c(OC)c(OC)c2)cc1OC(C)c1ccc([N+](=O)[O-])s1 (stereo not drawn) [Example 2, 1-(4-Methoxy-3-(1-(5-nitrothien-2-yl)ethoxy))phenyl-2-(3,4,5-trimethoxy)phenyl-Z-ethene]",0.33 µmol/J,–
"COC1=CC(=O)c2c(c(COc3cc(/C=C\c4cc(OC)c(OC)c(OC)c4)ccc3OC)c(C)n2C)C1=O [Example 4, 5-Methoxy-3-((3,4,4′,5-tetramethoxy-(Z)-stilbene-3′-yl)oxy)methyl-1,2-dimethylindole-4,7-dione]",0.44 µmol/J,192 to 194 °C
"COc1ccc(/C=C\c2cc(OC)c(OC)c(OC)c2)cc1OCc1c2c(n(C)c1C)C(=O)C=C(N1CCN(C)CC1)C2=O [Example 5, 3-((3,4,4′,5-Tetramethoxy-(Z)-stilbene-3′-yl)oxy)methyl-1,2-dimethyl-5-(4 methylpiperazin-1-yl)indole-4,7-dione]",0.34 µmol/J,–
